“And” between values parts separate entries of the source, which are not always exact repeats. Identical values can stand only once.
How the values were obtained:
PBD2 S652F mutant = target: T1, PBD2 S652F mutant (Homo sapiens, UniProt Q9NYY3, S652F); assay: FP-based inhibition assay, PBD2 S652F; format: binding
T1 construct: Purification of PBD2-His (355–685) (pKM3358) and its S652F mutant (pKM7980); His (C); made in house; host or cells: bacteria (E. coli)
Description: (§1) FP assays were carried out essentially as described previously ([35], [36]). FITC-conjugated ligands (15 nM) were mixed with PBDs at their EC85 concentrations. All the samples were analyzed approximately 30 min after reaction in a 384-well format using the SpectraMax Paradigm multimode microplate detection platform (Molecular Devices). Data were analyzed after carrying out at least three independent experiments using GraphPad Prism software version 8.
Fig. S3. Sequence alignment showing unique PBD2 S652 and PBD3 A612 residues and FP-based Allopole-A inhibition assays carried out with PBD2 S652F and PBD A612F mutants. (A) Human PBD1 (Uniprot ID: P53350), PBD2 (Uniprot ID: Q9NYY3), and PBD3 (15niport ID:Q9H4B4) sequences were aligned using Clustal Omega. The polo-box cap and L1 loop regions were adjusted based on the structural superposition of PBD1 (PDB ID: 3HIK), PBD2 (PDB_ID: 4RS6), and the AlphaFold model of PBD3 (https://alphafold.ebi.ac.uk). […]
with PBD2 and MBP-PBD3 are working properly under our conditions. […] The Kd values for the indicated proteins were determined after extrapolating them from the binding curves as the […]
concentration at which 50% of FITC-conjugated ligands (FITC-GPMQTSpTPKNG for PBD2 and FITC-GPLATSpTPKNG for PBD3) (5) are protein-bound. The EC85 values indicate the effective concentration of 85% of the maximal concentration calculated for each protein. […]

full-length Plk1 = target: T2, full-length Plk1 (Homo sapiens, UniProt P53350); assay: ELISA-based PBD1-binding inhibition assay; details: total lysates from HEK293A cells expressing full-length Plk1; biotinylated PBIP1 p-T78 peptide; read-out: Anti-Plk1 (full length) ELISA (IC50) Mean ± SEM
T2 construct: expressed in transfected cells; host or cells: HEK293A cells infected with adenovirus; total lysate

Plk3 PBD (PBD3) = target: T3, Plk3 PBD (PBD3) (Homo sapiens, UniProt Q9H4B4); assay: FP-based inhibition assay, PBD3; format: binding; details: bacterially expressed purified PBD, FITC-ligand 15 nM, PBD at EC85
T3 construct: MBP-PBD3-His (335–646) (pKM3359) and its A612F (pKM7981); His (C); made in house; host or cells: bacteria (E. coli)
T3 sequence (Q9H4B4 335-646): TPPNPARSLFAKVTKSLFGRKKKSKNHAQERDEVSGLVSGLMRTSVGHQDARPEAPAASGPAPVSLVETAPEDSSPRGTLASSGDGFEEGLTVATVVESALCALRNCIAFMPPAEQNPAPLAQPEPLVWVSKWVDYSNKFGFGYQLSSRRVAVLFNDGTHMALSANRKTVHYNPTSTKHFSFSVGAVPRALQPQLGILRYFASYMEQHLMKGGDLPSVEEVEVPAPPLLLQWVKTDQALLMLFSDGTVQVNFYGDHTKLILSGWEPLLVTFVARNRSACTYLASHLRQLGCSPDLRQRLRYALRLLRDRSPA
Description: as §1

Plk1 PBD (PBD1) = target: T4, Plk1 PBD (PBD1) (Homo sapiens, UniProt P53350); assay: FP-based inhibition assay, PBD1; format: binding
T4 construct: constructs expressing PBD1 (residues 345–603) WT (pKM7650); His; TEV site (N); made in house; host or cells: bacteria (E. coli)
Description: as §1, with “FITC-conjugated ligands (15 nM) were mixed with PBDs at their EC85 concentrations.” left out

[1] = tested on: Flag-Plk1 interactions with p-PBIP1, Bub1, BubR1, Cdc25C; assay: Coimmunoprecipitation, HeLa cells expressing Flag-Plk1; format: cell-based; details: 20 μM for 2 h, nocodazole + okadaic acid
Description: (§2) For coimmunoprecipitation analyses shown in Figs. 1C and 4F, HeLa cells stably expressing PCMV-Flag-Plk1 WT (pKM3863) (Fig. 1C) and its respective F559D mutant (pKM7979) (Fig. 4F) were generated using a lentiviral expression system. Prior to harvest, the cells were treated with 600 nM of nocodazole and 300 nM of okadaic acid (OA) for 16 h and 1.5 h, respectively, to enrich the level of phosphorylated proteins and additionally treated with either control DMSO or 20 μM of Allopole for 2 h. Immunoprecipitation was carried out essentially as described previously ([49]) in TBSN buffer [20 mM Tris–Cl (pH 8.0), 150 mM NaCl, 0.5% NP-40, 5 mM EGTA, 2 mM MgCl2, 1.5 mM EDTA, 2 mM DTT, 20 mM p-nitrophenyl phosphate (PNPP), and protease inhibitor cocktail (Roche)] using anti-Flag antibody (Sigma-Aldrich). Immunoprecipitates were separated by sodium dodecyl sulfate–polyacrylamide gel electrophoresis (SDS-PAGE) and then immunoblotted according to standard procedures using an enhanced chemiluminescence detection system (Thermo Fisher Scientific). The antibodies that were used to detect specific indicated proteins in Fig. 1C are listed in SI Appendix, Table S6.

[2] = tested on: Flag-Plk1 F559D interactions with p-PBIP1, p-Bub1, p-BubR1, p-Cdc25C; assay: Coimmunoprecipitation, HeLa cells expressing Flag-Plk1 F559D; format: cell-based; details: 20 μM for 2 h, nocodazole + okadaic acid
Description: as §2

T4 sequence (P53350 345-603): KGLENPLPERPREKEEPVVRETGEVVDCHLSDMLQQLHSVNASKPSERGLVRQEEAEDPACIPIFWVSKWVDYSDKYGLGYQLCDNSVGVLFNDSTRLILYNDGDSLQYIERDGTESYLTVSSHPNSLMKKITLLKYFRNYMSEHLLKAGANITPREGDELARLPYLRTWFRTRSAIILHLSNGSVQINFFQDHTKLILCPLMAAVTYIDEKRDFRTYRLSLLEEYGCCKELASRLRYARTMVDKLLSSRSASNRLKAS
T2 sequence (P53350 whole entry): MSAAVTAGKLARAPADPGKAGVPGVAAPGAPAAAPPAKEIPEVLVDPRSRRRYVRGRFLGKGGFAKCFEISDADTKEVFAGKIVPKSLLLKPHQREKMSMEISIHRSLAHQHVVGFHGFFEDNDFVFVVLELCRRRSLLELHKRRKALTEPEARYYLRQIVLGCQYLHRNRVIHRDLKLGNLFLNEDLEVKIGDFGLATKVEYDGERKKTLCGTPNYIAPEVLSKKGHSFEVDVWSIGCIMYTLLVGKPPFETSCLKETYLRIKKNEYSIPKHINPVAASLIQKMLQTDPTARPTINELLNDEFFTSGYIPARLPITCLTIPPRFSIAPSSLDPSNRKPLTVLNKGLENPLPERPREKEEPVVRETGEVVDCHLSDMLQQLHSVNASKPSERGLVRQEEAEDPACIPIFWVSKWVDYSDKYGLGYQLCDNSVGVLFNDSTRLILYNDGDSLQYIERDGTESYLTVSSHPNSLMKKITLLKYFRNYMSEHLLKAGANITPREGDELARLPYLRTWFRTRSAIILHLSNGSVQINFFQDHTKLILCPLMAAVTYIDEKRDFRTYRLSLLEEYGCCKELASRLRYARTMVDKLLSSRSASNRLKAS
T1 sequence (Q9NYY3 355-685 S652F): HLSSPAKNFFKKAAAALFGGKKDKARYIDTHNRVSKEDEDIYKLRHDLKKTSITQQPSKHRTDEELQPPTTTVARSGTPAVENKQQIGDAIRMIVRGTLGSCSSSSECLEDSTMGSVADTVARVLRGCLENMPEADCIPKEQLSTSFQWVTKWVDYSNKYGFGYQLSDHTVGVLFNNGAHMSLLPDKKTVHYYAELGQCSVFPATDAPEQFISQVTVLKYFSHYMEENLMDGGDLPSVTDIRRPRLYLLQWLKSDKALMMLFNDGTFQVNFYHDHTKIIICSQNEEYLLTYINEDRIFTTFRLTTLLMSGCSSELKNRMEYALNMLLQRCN

Compound	Inhibition in FP assay (in words) (PBD2 S652F mutant)	IC50 (full-length Plk1)	PBD3 IC50 ± SD (Plk3 PBD (PBD3))	IC50 (Plk1 PBD (PBD1); FP, bacterially expressed purified PBD, FITC-ligand 15 nM, PBD at EC85, read-out: PBD1 IC50 ± SD)	Inhibition of FITC-phosphopeptide binding (in words) (Plk1 PBD (PBD1); PBD1 WT at EC85)	Phosphoproteins coprecipitating with Flag-Plk1 (in words) [1]	Phosphoproteins coprecipitating with Flag-Plk1 F559D (in words) [2]
O=c1c2sc(Cl)cc2n2c(=S)[nH]nc2n1CC1CC1 [Allopole-A]	not inhibitable	1400 nM	N. S.	2.5 nM and 2.53 nM	effectively inhibited PBD1 WT		
Cn1cnc([N+](=O)[O-])c1Sc1nnc2n(CC3CC3)c(=O)c3sc(Cl)cc3n12 [Allopole]						greatly diminished the amounts of these proteins coprecipitating with Plk1	coimmunoprecipitated p-PBIP1, p-Bub1, p-BubR1, and p-Cdc25C effectively

Source: publication PMC10629583, “Specific inhibition of an anticancer target, polo-like kinase 1, by allosterically dismantling its mechanism of substrate recognition” (Proceedings of the National Academy of Sciences of the …, 2023)
